Toxic doses and inconclusive results are not listed. Cut-off read from the data, not from the text of the source: active = T/C of 150% or more; inactive = T/C below 125%.
System: L1210 leukemia ip in BDF1 mice, survival T/C
Test: NCI In Vivo Anticancer Drug Screen. Data for tumor model L1210 Leukemia (intraperitoneal) in B6D2F1 (BDF1) mice
Settings: endpoint: mean survival time, higher = longer survival
Outline: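 Transplanted-tumor mice were given test agent; controls received vehicle only. Survival readings from the two groups were divided (treated over control).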

[1] = dose: 100.0 mg/kg/injection, schedule: Q01DX001 (ip), vehicle: saline
[2] = dose: 200.0 mg/kg/injection, schedule: Q01DX001 (ip), vehicle: saline
[3] = dose: 100.0 mg/kg/injection, schedule: Q01DX001 (ip), vehicle: other
[4] = dose: 200.0 mg/kg/injection, schedule: Q01DX001 (ip), vehicle: other
[5] = dose: 400.0 mg/kg/injection, schedule: Q01DX001 (ip), vehicle: other

Measured: T/C

c1cc2ccsc2cn1
inactive: dose: 12.5 mg/kg/injection, schedule: Q01DX009 (ip), vehicle: saline with Tween-80 104 % of control | dose: 12.5 mg/kg/injection, schedule: Q04DX003 (ip), vehicle: saline with Tween-80 110 % of control | dose: 25.0 mg/kg/injection, schedule: Q01DX009 (ip), vehicle: saline with Tween-80 103 % of control | dose: 25.0 mg/kg/injection, schedule: Q04DX003 (ip), vehicle: saline with Tween-80 104 % of control | dose: 50.0 mg/kg/injection, schedule: Q01DX009 (ip), vehicle: saline with Tween-80 102 % of control | dose: 50.0 mg/kg/injection, schedule: Q04DX003 (ip), vehicle: saline with Tween-80 103 % of control

COc1ccc(/C=C2\N=C(c3cc(OC)c(OC)c(OC)c3)OC2=O)cc1Br
inactive: dose: 100.0 mg/kg/injection, schedule: Q01DX009 (ip), vehicle: saline with Tween-80 91 % of control | dose: 200.0 mg/kg/injection, schedule: Q01DX009 (ip), vehicle: saline with Tween-80 91 % of control | dose: 400.0 mg/kg/injection, schedule: Q01DX009 (ip), vehicle: saline with Tween-80 102 % of control

CCCCCCCCCCCCCCCCN(C)/C(=N\NS(=O)(=O)c1cccc([N+](=O)[O-])c1)c1ccc(OC)c(OC)c1
inactive: dose: 100.0 mg/kg/injection, schedule: Q04DX003 (ip), vehicle: Klucel (hydroxypropylcellulose) (HPC) 93 % of control | dose: 200.0 mg/kg/injection, schedule: Q04DX003 (ip), vehicle: Klucel (hydroxypropylcellulose) (HPC) 95 % of control | dose: 400.0 mg/kg/injection, schedule: Q04DX003 (ip), vehicle: Klucel (hydroxypropylcellulose) (HPC) 93 % of control

CC(=O)Nc1cc(-c2ccccc2)c(NC(C)=O)c(-c2ccccc2)c1
inactive: [1] 90 % of control | [2] 90 % of control | dose: 400.0 mg/kg/injection, schedule: Q01DX001 (ip), vehicle: saline 94 % of control

CCCCCC#CC(C)OC(=O)Nc1cccc2ccccc12 (stereo not drawn)
inactive: dose: 100.0 mg/kg/injection, schedule: Q01DX001 (ip), vehicle: saline with Tween-80 96 % of control | dose: 200.0 mg/kg/injection, schedule: Q01DX001 (ip), vehicle: saline with Tween-80 98 % of control | dose: 400.0 mg/kg/injection, schedule: Q01DX001 (ip), vehicle: saline with Tween-80 86 % of control

O=P(CCCl)(OCCCl)OCCCl
inactive: dose: 100.0 mg/kg/injection, schedule: Q04DX003 (ip), vehicle: saline with Tween-80 94 % of control | dose: 200.0 mg/kg/injection, schedule: Q04DX003 (ip), vehicle: saline with Tween-80 109 % of control | dose: 400.0 mg/kg/injection, schedule: Q04DX003 (ip), vehicle: saline with Tween-80 109 % of control

CCCCOCCOCCOc1ccc(C(=O)OC)cc1
inactive: dose: 100.0 mg/kg/injection, schedule: Q01DX001 (ip), vehicle: saline sonified 103 % of control | dose: 200.0 mg/kg/injection, schedule: Q01DX001 (ip), vehicle: saline sonified 96 % of control | dose: 400.0 mg/kg/injection, schedule: Q01DX001 (ip), vehicle: saline sonified 100 % of control

CC1(C)CC(=O)C2=C(C1)Nc1ccccc1CC2c1c[nH]c2ccccc12 (stereo not drawn)
inactive: [3] 94 % of control | [4] 103 % of control | [5] 103 % of control

Cc1ccc2c(c1)C1(C)C=CC(=O)CC1O2 (stereo not drawn)
inactive: dose: 100.0 mg/kg/injection, schedule: Q04DX002 (ip), vehicle: saline with Tween-80 106 % of control | dose: 200.0 mg/kg/injection, schedule: Q04DX002 (ip), vehicle: saline with Tween-80 110 % of control | dose: 400.0 mg/kg/injection, schedule: Q04DX002 (ip), vehicle: saline with Tween-80 106 % of control

N#CC(c1ccc(N)cc1)c1ccc(F)cc1 (stereo not drawn)
inactive: dose: 50.0 mg/kg/injection, schedule: Q01DX001 (ip), vehicle: saline 97 % of control | [1] 97 % of control | [2] 97 % of control

COc1cc(OC)c(/C=C/c2cnc3ccccc3n2)c(OC)c1
inactive: dose: 3.13 mg/kg/injection, schedule: Q04DX002 (ip), vehicle: saline with Tween-80 104 % of control | dose: 6.25 mg/kg/injection, schedule: Q04DX002 (ip), vehicle: saline with Tween-80 95 % of control | dose: 12.5 mg/kg/injection, schedule: Q04DX002 (ip), vehicle: saline with Tween-80 88 % of control | dose: 50.0 mg/kg/injection, schedule: Q04DX002 (ip), vehicle: saline with Tween-80 90 % of control

CC(O)CNC(=O)C(C)(C)O (stereo not drawn)
inactive: dose: 100.0 mg/kg/injection, schedule: Q01DX009 (ip), vehicle: saline 96 % of control | dose: 200.0 mg/kg/injection, schedule: Q01DX009 (ip), vehicle: saline 96 % of control | dose: 400.0 mg/kg/injection, schedule: Q01DX009 (ip), vehicle: saline 94 % of control

C/C=C(\C)COC(=O)c1ccc([N+](=O)[O-])cc1
inactive: [3] 104 % of control | [4] 98 % of control | [5] 93 % of control

— PubChem BioAssay AID248 (DTP/NCI, 2004)
